Residual activity, inhibition and activity data for 2 compounds are collected here from ChEMBL document CHEMBL4507282, “Data for DCP probe BI-1950” (2021).

The term inhibition denotes the relative decrease from the control value, in per cent.

Data set [1] deals with Acetylcholine receptor subunit alpha (Homo sapiens) (UniProt P02708). Briefly: NACH/H Eurofins-Panlabs selectivity data (BI). The settings on record: Compound concentration 10.0 uM.
The next data set is filed under the species Cavia porcellus. Briefly: ATRANS Eurofins-Panlabs selectivity data (BI). The settings on record: Compound concentration 10.0 uM.
The target in data set [2] is 5-hydroxytryptamine receptor 6 (Homo sapiens) (UniProt P50406). Briefly: 5HT6/HU Eurofins-Panlabs selectivity data (BI). Conditions: Compound concentration 10.0 uM; call rule not given here.
In data set [3] the target is Small conductance calcium-activated potassium channel protein 1 (Rattus norvegicus) (UniProt P70606). Briefly: K+/SKCA Eurofins-Panlabs selectivity data (BI). Conditions: Compound concentration 10.0 uM.
Data set [4] has as its target Type-1 angiotensin II receptor (Oryctolagus cuniculus) (UniProt P34976). Briefly: AT1 Eurofins-Panlabs selectivity data (BI). The settings on record: Homo sapiens; Compound concentration 10.0 uM.
The target of data set [5] is 5-hydroxytryptamine receptor 5A (Homo sapiens) (UniProt P47898). The experiment in a line: 5HT5A/HU Eurofins-Panlabs selectivity data (BI). Conditions: Compound concentration 10.0 uM.
Chain of 5-hydroxytryptamine receptor 5A (Homo sapiens) (P47898 whole entry): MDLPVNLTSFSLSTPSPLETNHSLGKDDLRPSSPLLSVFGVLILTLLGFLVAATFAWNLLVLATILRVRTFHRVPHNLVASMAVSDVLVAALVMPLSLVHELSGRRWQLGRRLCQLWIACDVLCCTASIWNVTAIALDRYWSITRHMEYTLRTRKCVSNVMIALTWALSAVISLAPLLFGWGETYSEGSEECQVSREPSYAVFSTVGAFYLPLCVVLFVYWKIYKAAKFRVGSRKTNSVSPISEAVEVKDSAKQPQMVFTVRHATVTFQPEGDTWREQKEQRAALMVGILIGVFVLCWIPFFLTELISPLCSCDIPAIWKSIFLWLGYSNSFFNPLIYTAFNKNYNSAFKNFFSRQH
The target of data set [6] is D(2) dopamine receptor (Homo sapiens) (UniProt P14416). Briefly: D2L/H Eurofins-Panlabs selectivity data (BI). The settings on record: Compound concentration 10.0 uM.
The target of data set [7] is 5-hydroxytryptamine receptor 4 (Cavia porcellus) (UniProt O70528). Briefly: 5HT4/GPIG Eurofins-Panlabs selectivity data (BI). Conditions: Compound concentration 10.0 uM.
The target of data set [8] is T1, D(4) dopamine receptor (Homo sapiens) (UniProt P21917).
T1 sequence (whole entry): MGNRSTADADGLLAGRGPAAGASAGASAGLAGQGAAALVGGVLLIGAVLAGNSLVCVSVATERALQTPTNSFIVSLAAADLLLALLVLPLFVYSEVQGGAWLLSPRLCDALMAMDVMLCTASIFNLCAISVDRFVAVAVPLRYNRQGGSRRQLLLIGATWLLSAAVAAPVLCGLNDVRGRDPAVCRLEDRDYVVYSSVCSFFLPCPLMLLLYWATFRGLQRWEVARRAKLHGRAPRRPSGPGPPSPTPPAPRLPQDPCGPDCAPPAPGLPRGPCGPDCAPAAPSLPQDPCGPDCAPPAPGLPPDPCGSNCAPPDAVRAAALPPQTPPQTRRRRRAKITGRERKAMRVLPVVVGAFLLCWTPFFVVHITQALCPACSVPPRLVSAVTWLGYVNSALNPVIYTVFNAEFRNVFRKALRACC
The experiment in a line: D4.2/H Eurofins-Panlabs selectivity data (BI). The settings on record: Compound concentration 10.0 uM.

The target in data set [9] is GABA-A receptor; anion channel (Rattus norvegicus) (UniProt O09028+P15431+P18506+P18508+P19969+P20236+P23574+P23576+P28471+P28473+P30191+P62813+P63079+P63138+Q91ZM7+Q9ES14). Conditions: Compound concentration 10.0 uM.
The target of data set [10] is D(3) dopamine receptor (Homo sapiens) (UniProt P35462). The experiment in a line: D3/HU Eurofins-Panlabs selectivity data (BI). The settings on record: Compound concentration 10.0 uM.
Data set [11] deals with Sodium-dependent noradrenaline transporter (Homo sapiens) (UniProt P23975). Briefly: NETRANS/H Eurofins-Panlabs selectivity data (BI). Conditions: Compound concentration 10.0 uM.
For data set [12], the target named is 5-hydroxytryptamine receptor 1A (Homo sapiens) (UniProt P08908). The settings on record: Compound concentration 10.0 uM.
Data set [13] concerns the target Carbonic anhydrase 6 (Homo sapiens) (UniProt P23280). The experiment in a line: CANHYDRASE Eurofins-Panlabs selectivity data (BI). The settings on record: Compound concentration 10.0 uM.
For data set [14], the target named is Muscarinic acetylcholine receptor M1 (Rattus norvegicus) (UniProt P08482). The experiment in a line: MUSCARIN/OTM Eurofins-Panlabs selectivity data (BI). The settings on record: Compound concentration 10.0 uM.
The target in data set [15] is Voltage-dependent L-type calcium channel subunit alpha-1C (phenylalkylamine site) (Rattus norvegicus, UniProt P22002). Briefly: CA+/PAASITE Eurofins-Panlabs selectivity data (BI). The settings on record: read-out: % Ctrl.
Chain of Voltage-dependent L-type calcium channel subunit alpha-1C (phenylalkylamine site) (P22002 whole entry): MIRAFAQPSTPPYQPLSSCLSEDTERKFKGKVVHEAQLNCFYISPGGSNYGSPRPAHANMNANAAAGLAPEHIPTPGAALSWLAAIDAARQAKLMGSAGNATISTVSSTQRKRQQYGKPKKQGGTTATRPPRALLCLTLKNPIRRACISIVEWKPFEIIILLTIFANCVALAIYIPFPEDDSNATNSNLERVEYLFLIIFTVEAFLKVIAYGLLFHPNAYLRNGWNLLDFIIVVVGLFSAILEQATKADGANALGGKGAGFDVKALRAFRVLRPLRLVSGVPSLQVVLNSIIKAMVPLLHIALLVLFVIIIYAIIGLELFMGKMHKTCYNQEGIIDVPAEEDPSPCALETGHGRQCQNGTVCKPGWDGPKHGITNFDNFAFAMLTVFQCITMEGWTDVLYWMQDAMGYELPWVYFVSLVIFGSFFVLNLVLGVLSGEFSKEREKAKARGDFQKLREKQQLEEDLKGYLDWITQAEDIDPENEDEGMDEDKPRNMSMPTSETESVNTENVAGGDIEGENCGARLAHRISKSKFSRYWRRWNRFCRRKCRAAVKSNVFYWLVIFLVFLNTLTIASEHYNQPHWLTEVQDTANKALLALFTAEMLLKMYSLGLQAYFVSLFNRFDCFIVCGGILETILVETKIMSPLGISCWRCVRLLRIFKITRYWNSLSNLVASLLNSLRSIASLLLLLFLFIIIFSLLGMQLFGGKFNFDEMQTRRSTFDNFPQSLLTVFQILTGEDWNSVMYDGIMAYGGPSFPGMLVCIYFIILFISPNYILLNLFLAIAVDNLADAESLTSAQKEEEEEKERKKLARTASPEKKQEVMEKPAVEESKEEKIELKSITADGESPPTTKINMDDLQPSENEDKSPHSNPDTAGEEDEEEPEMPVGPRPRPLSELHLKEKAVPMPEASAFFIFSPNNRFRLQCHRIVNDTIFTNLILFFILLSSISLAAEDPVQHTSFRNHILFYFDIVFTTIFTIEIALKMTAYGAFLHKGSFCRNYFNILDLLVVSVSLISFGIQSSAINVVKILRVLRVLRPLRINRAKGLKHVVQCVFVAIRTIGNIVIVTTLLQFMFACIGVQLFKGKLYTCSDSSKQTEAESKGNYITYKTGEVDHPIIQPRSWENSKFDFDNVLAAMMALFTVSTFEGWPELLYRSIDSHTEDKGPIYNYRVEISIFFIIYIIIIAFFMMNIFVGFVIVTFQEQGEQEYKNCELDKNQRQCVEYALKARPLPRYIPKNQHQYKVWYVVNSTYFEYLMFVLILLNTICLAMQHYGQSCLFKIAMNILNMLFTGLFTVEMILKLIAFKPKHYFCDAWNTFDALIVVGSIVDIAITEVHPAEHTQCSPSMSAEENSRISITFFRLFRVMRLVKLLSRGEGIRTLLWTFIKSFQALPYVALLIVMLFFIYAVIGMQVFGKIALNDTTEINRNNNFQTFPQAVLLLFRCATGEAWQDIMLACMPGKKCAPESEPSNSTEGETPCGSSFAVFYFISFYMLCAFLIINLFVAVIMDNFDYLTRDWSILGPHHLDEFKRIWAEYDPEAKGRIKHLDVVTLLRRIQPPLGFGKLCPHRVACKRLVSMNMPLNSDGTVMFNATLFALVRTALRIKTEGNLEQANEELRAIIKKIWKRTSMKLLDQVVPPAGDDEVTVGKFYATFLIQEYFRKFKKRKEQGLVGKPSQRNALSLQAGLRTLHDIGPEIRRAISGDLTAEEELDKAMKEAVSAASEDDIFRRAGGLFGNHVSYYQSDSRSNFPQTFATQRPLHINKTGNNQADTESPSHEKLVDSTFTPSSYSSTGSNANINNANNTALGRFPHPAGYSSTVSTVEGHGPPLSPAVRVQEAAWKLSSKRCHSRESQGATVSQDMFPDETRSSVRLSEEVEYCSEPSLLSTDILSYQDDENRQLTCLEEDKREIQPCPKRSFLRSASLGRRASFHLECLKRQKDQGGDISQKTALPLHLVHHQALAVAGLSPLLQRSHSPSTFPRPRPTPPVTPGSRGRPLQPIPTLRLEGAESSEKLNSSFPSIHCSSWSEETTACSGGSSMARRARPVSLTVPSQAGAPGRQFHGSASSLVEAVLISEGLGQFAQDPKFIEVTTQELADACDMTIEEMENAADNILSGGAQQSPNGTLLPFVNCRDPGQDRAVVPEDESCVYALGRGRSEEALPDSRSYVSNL
The target of data set [16] is D(1B) dopamine receptor (Homo sapiens) (UniProt P21918). The experiment in a line: D5/HU Eurofins-Panlabs selectivity data (BI). Conditions: Compound concentration 10.0 uM.
Data set [17] concerns the target Histamine H2 receptor (Homo sapiens) (UniProt P25021). Briefly: H2/H Eurofins-Panlabs selectivity data (BI). The settings on record: Compound concentration 10.0 uM.
Data set [18] concerns the target T2, Thromboxane-A synthase (Homo sapiens) (UniProt P24557).
T2 sequence (whole entry): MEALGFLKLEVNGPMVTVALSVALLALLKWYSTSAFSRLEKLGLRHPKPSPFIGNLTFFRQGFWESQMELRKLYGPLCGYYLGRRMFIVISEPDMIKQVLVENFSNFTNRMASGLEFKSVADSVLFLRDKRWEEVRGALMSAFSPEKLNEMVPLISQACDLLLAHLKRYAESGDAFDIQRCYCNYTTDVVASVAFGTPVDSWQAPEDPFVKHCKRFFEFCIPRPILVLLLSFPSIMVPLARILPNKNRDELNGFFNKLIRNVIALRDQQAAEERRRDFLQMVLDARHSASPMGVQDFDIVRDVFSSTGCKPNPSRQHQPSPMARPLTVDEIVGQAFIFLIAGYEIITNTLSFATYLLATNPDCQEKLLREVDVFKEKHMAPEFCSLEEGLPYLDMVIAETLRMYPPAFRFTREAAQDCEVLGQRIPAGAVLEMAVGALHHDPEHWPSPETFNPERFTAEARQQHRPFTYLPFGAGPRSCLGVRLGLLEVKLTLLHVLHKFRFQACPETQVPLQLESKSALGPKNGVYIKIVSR
The experiment in a line: THRO SYN(HU) Eurofins-Panlabs selectivity data (BI).

The target in data set [19] is Adrenergic receptor alpha-1 (Rattus norvegicus) (UniProt P15823+P23944+P43140). The experiment in a line: ALPHA1/R Eurofins-Panlabs selectivity data (BI). It counts as protein assay. Conditions: Compound concentration 10.0 uM.
For data set [20], the target named is Gamma-aminobutyric acid receptor subunit alpha-1 (Rattus norvegicus) (UniProt P62813). The experiment in a line: GABAA MUSCIMOL CENT Eurofins-Panlabs selectivity data (BI). The settings on record: Compound concentration 10.0 uM.
Data set [21] concerns the target Beta-3 adrenergic receptor (Homo sapiens) (UniProt P13945). Conditions: Compound concentration 10.0 uM.
Data set [22] concerns the target Voltage-dependent L-type calcium channel subunit alpha-1C (DHP site) (Rattus norvegicus, UniProt P22002). Briefly: CA+/DHPSI/RA Eurofins-Panlabs selectivity data (BI). Conditions: read-out: % Ctrl.
Data set [23] addresses GABA B receptor (Rattus norvegicus) (UniProt Q9Z0U4+O88871). Briefly: GABAB/RA Eurofins-Panlabs selectivity data (BI). It counts as protein-complex assay. The settings on record: Compound concentration 10.0 uM.
Data set [24] concerns the target Muscarinic acetylcholine receptor M2 (Homo sapiens) (UniProt P08172). The settings on record: Compound concentration 10.0 uM.
Data set [25] deals with Muscarinic acetylcholine receptor M5 (Homo sapiens) (UniProt P08912). Conditions: Compound concentration 10.0 uM.
Data set [26] has as its target Muscarinic acetylcholine receptor M1 (Homo sapiens) (UniProt P11229). Conditions: Compound concentration 10.0 uM.

SMILES strings stand for the structures.

Chain of Voltage-dependent L-type calcium channel subunit alpha-1C (DHP site) (P22002 whole entry): as the sequence (P22002 whole entry) above
Chain of Carbonic anhydrase 6 (Homo sapiens) (P23280 whole entry): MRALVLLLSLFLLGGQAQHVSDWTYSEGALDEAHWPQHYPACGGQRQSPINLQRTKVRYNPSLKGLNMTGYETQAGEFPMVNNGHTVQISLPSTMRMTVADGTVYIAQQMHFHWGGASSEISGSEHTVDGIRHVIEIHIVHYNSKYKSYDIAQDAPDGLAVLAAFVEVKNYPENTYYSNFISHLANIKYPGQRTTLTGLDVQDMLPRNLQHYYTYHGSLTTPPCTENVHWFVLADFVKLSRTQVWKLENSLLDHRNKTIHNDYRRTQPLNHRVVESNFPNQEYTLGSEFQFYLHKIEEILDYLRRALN

On to `C[C@H](NC(=O)c1cnc2n1[C@](C)(Cc1ccc(C#N)cc1)C(=O)N2c1cc(Cl)c(F)c(Cl)c1)C(=O)NC1(c2ccccn2)CC1` [BI 1950], for which the residual activity was 112% in [1]; 92% in the data set listed under Cavia porcellus; 102% in data set [2]; 108% in [3]; 90% in [4]; 105% in data set [5]. The residual activity was 115% in [6]; 83% in [7]; 86% in [8]; 88% in [10]; 72% in data set [11]; 86% in data set [13]. In addition, the residual activity in [14] is 77%; in data set [16] it was 86%; in data set [17], 74%; in [18] (Compound concentration 0.03 uM), 94%; in [18] (Compound concentration 0.1 uM) it was 93%; in data set [18] (Compound concentration 0.3 uM), 91%. Besides, the residual activity was 82% in data set [18] (Compound concentration 1.0 uM); 74% in data set [18] (Compound concentration 3.0 uM); 47% in data set [18] (Compound concentration 10.0 uM); 102% in data set [19]; 96% in data set [20]; 111% in data set [23]. For the same compound, the inhibition in data set [9] is 4.9%; in data set [12], -9.74%; in data set [21] it was 12.4%. Moreover, the figures for the activity at 0.03 µM in data set [15] (compound concentration 0.03 uM) and in data set [22] (compound concentration 0.03 uM) were 109% (not active) and 97% (not active), respectively. The activity at 0.1 µM in data set [15] (compound concentration 0.1 uM) is 110% (not active); in [22] (compound concentration 0.1 uM), 98% (not active). For the same compound, the activity at 0.3 µM is reported as 102% (not active) in data set [15] (compound concentration 0.3 uM) and 94% (not active) in data set [22] (compound concentration 0.3 uM). In addition, the activity at 1 µM in data set [15] (compound concentration 1 uM) is listed as 86% (not active); in [22] (compound concentration 1 uM) it was 81% (not active). For the same compound, the activity at 3 µM is reported as 76% (not active) in [15] (compound concentration 3 uM) and 58% (not active) in data set [22] (compound concentration 3 uM). Also, the activity at 10 µM was 49.5% in [15] (compound concentration 10 uM) and 28% in data set [22] (compound concentration 10 uM).
As for `C[C@@]1(Cc2ccc(C#N)cc2)C(=O)N(c2cc(Cl)cc(Cl)c2)c2ncc(C(=O)NC3(c4nc(C5CCC5)no4)CC3)n21` [BI 9446], the inhibition in data set [24] is -8.35%; in [25], -8.46%; in data set [26], -8.37%.
